According to ChEMBL document CHEMBL1143634, “Calculating virtual log P in the alkane/water system (log P(N)(alk)) and its derived parameters deltalog P(N)(oct-alk) and log D(pH)(alk)” (J Med Chem, 2005):

Experiment: Lipophilicity determined as logarithm of the partition coefficient in the alkane/water system
Details: octanol/water

SMILES	Log PNalk
c1ccc(-c2ccncc2)cc1	1.58
CSC	0.98
CNc1ccccc1	1.11
Oc1ccccc1Br	1.04
[O-][n+]1cccc2ccccc21	-2.05
Cc1cc(C)cc(O)c1	0.32
COc1ccccc1C(=O)O	2.08
[O-][n+]1ccc(-c2ccccc2)cc1	-2.36
Cc1ccc(C)c(O)c1	0.38
[O-][n+]1ccc2ccccc2c1	-2.51
CSc1ccccc1	2.81
N#Cc1ccccc1O	-1.85
CCCCC(C)=O	0.87
CC(C1=C(CCN(C)C)Cc2ccccc21)c1ccccn1 (configuration not stated)	1.65
O=C(O)c1cccc([N+](=O)[O-])c1	-1.22
Cc1ccc(O)c(C)c1	0.34
CC(C)c1ccccc1O	0.96
Oc1cc(Cl)cc(Cl)c1	0.35
[O-][S+](c1ccccc1)c1ccccc1	0.67
CN(C)c1ccccc1	2.4
CCCC(C)=O	0.43

SMILES	Log PNalk
Oc1ccc(C(F)(F)F)cc1	-0.15
Oc1cccc(F)c1	-0.83
CCCCCCCO [1-HEPTANOL]	1.01
CCCCCO [1-PENTANOL]	-0.4
COc1cccc(O)c1 [1-hydroxy-3-methoxybenzene]	-0.88
Oc1c(Cl)cccc1Cl [2,6-DICHLOROPHENOL]	1.31
Oc1ccccc1Cl [2-CHLOROPHENOL]	0.76
Nc1ccccc1[N+](=O)[O-] [2-NITROANILINE]	0.31
Nc1cccc(Cl)c1 [3-CHLOROANILINE]	0.71
O=[N+]([O-])c1cccc(O)c1 [3-NITRO-PHENOL]	-1.23
Nc1cccc([N+](=O)[O-])c1 [3-NITROANILINE]	-0.46
Nc1ccc(Cl)cc1 [4-CHLOROANILINE]	0.57
N#Cc1ccc(O)cc1 [4-CYANOPHENOL]	-2.29
O=S(=O)(c1ccccc1)c1ccccc1 [(PHENYLSULFONYL)BENZENE]	1.45
CC(=O)Nc1ccccc1 [ACETANILIDE]	-1.7
COC(C)=O [ACETIC ACID METHYL ESTER]	-0.26
CCCOC(C)=O [ACETIC ACID PROPYL ESTER]	0.9
CC(C)=O [ACETONE]	-0.91
CC(=O)c1ccccc1 [ACETOPHENONE]	1.14
C[C@]12CCC(=O)C=C1CC[C@@H]1[C@@H]2[C@@H](O)C[C@]2(C=O)[C@@H](C(=O)CO)CC[C@@H]12 [ALDOSTERONE]	-2.7
CC(N)Cc1ccccc1 (configuration not stated) [AMPHETAMINE]	0.73

SMILES	Log PNalk
Nc1ccccc1 [ANILINE]	0.03
COc1ccccc1 [ANISOLE]	2.15
COc1ccc(CCN2CCC(Nc3nc4ccccc4n3Cc3ccc(F)cc3)CC2)cc1 [ASTEMIZOLE]	0.95
CN1CCC(=C2c3ccccc3CCc3cccnc32)CC1 [AZATADINE]	1.82
CCC1(CC)C(=O)NC(=O)NC1=O [BARBITAL]	-2.15
O=Cc1ccccc1 [BENZALDEHYDE]	1.12
N#Cc1ccccc1 [BENZONITRILE]	0.9
OCc1ccccc1 [BENZYL ALCOHOL]	-0.62
NCc1ccccc1 [BENZYLAMINE]	-0.21
Oc1ccc2ccccc2c1 [BETANAPHTHOL]	0.3
c1ccc(-c2ccccc2)cc1 [BIPHENYL]	4
Brc1ccccc1 [BROMOBENZENE]	3.12
CCC(C)=O [BUTANONE]	-0.25
CCCCN [BUTYLAMINE]	-0.62
O=C(O)CCl [CHLOROACETIC ACID]	-3.14
Clc1ccccc1 [CHLOROBENZENE]	2.99
CN(C)CCC(c1ccc(Cl)cc1)c1ccccn1 (configuration not stated) [CHLORPHENIRAMINE]	2.09
CN(C)CCCN1c2ccccc2Sc2ccc(Cl)cc21 [CHLORPROMAZINE]	4.37
Cc1ncc2c(c1O)COC2c1ccc(Cl)cc1 (configuration not stated) [CICLETANINE]	-1.76
C[C@]12C[C@H](O)[C@H]3[C@@H](CCC4=CC(=O)CC[C@@]43C)[C@@H]1CC[C@@H]2C(=O)CO [CORTICOSTERONE]	-1.62
